Tested on: skeletal muscle (gastrocnemius) gene expression
Experiment: Gene expression profiling in skeletal muscle, short-term (3 months) dietary intervention in young mice
Assay type: in vivo
Details: 3 months treatment
Procedure: For each target gene, the fold change is calculated as follows: [Expression obtained with the experimental diet] divided by [Expression obtained with control diet]. Consequently, fold changes of all target genes are equal to 1 (one) for the control diet. Thus, fold changes refers to the modulation of expression of a given target gene in muscle tissue after 3 months feeding with an experimental diet, for example, diets B, C, D, or F, when compared to the expression of the same gene in muscle tissue of the control group (diet A).
Dietary intervention was of 3 months, all animal groups were fed Ad libitum except for the group of caloric restricted mice which as fed 67% of the daily food consumed by the control Ad libitum group. Animal weight was measured once a week.
The effect of short and long nutritional intervention was investigated. The short-term dietary interventions with diet A, B, C, D and F was initiated in young mice and lasted for three months. In a similar way, long-term interventions were initiated at three months of age for the following diets A and B and D and lasted twenty-one months.
Male mice C57/B16 were obtained from Iffa credo (France) at 9 weeks of age. Upon arrival mice were housed by groups of 6 animals. After 3 weeks adaptation, mice (12 weeks old) were randomized 6 groups (A to F) of 12 mice each and housed individually. Dietary intervention was of 3 months; mice had free access to water and were submitted to 12 hours light and dark cycles.
The control diet (diet A) composed of 18% proteins (soy and whey), 11% fat (soybean oil), 59% carbohydrates (starch+sucrose) and 10% cellulose was supplemented with either a cocktail of antioxidants comprising vitamin C, vitamin E, grape seed extract and cysteine (diet C) and/or L-camitine (diet D and F respectively). For caloric restriction (diet B) fat, starch and sucrose were reduced to provide 67% of the daily calorie consumption of the Ad-lib control group while providing 100% for proteins, minerals and vitamins. These diets are as follows: • Diet A—Control: 18% proteins (soy and whey), 11% fat, 59% carbohydrates, 5% cellulose. • Diet B—Caloric restriction: 18% proteins (soy and whey), 7.7% fat, 32.5% carbohydrates, 5% cellulose • Diet C—Cocktail of antioxidants : Diet A+0.19% vit C, 0.03% vit E, 0.075% grape seed extract, 0.4% cysteine. • Diet D: Carnitine and Antioxidants: Diet A+0.3% L- camitine+cocktail of antioxidants of diet C. • Diet F: Carnitine: Diet A+0.3% L- carnitine
Mice were decapitated and dissected rapidly. Skeletal muscles (gastrocnemius) were immersed in RNAlatter (Ambion) and frozen at −80° C. until use. For RNA extraction, muscles were homogenized with ceramic beads (FastPrep, Q-Biogene) and the RNA extracted with Totally RNA kit (Ambion). The quality of the RNA was checked by Agilent technology. RNA pools from four mice each were created and hybridized to Affymetrix Murine U74Av2 high-density oligonucleotide microarrays.
The Global Error Assessment (GEA) methodology was used to select differentially expressed genes in the present invention. See Bioinformatics, Vol. 20, No. 16 (Oxford University Press 2004) pp. 2726-2737, the content of which is hereby incorporated by reference thereto. The goal was to select genes with statistically significant differential expression between treatments and ages of the mice of the study.

Structure (SMILES): C[N+](C)(C)C[C@H](O)CC(=O)[O-] [Carnitine, L-carnitine]
- Fold Changes 0610013E23Rik (RIKEN cDNA 0610013E23 gene): 0.6 fold
- Fold Changes 2010012F05Rik (RIKEN cDNA 2010012F05 gene): 0.8 fold
- Fold Changes 2210419D22Rik (RIKEN cDNA 2210419D22 gene): 0.8 fold
- Fold Changes 2310016A09Rik (RIKEN cDNA 2310016A09 gene): 0.7 fold
- Fold Changes 2310073E15Rik (RIKEN cDNA 2310073E15 gene): 1.2 fold
- Fold Changes 2610034N03Rik (RIKEN cDNA 2610034N03 gene): 0.5 fold
- Fold Changes 2700059D21Rik (RIKEN cDNA 2700059D21 gene): 0.5 fold
- Fold Changes 3110038L01Rik (RIKEN cDNA 3110038L01 gene): 1.4 fold
- Fold Changes 4732477C12Rik (RIKEN cDNA 4732477C12 gene): 1.2 fold
- Fold Changes 5730454B08Rik (RIKEN cDNA 5730454B08 gene): 0.8 fold
- Fold Changes 5730497N03Rik (RIKEN cDNA 5730497N03 gene): 0.2 fold
- Fold Changes 6330407G11Rik (RIKEN cDNA 6330407G11 gene): 0.6 fold
- Fold Changes 6720463E02Rik (RIKEN cDNA 6720463E02 gene): 1.3 fold
- Fold Changes Actb (actin, beta, cytoplasmic): 1.4 fold
- Fold Changes Akt1s1 (AKT1 substrate 1 (proline-rich)): 1.4 fold
- Fold Changes Aldh2 (aldehyde dehydrogenase 2, mitochondrial): 1.7 fold
- Fold Changes Anp32e (acidic (leucine-rich) nuclear phosphoprotein 32 family, member E): 0.6 fold
- Fold Changes Apobec2 (apolipoprotein B editing complex 2): 0.5 fold
- Fold Changes Arid1a (AT rich interactive domain 1A (Swi1 like)): 0.6 fold
- Fold Changes Arpc2 (actin related protein 2/3 complex, subunit 2): 0.6 fold
- Fold Changes Atp1b2 (ATPase, Na+/K+ transporting, beta 2 polypeptide): 4.1 fold
- Fold Changes Atp13a (ATPase type 13A): 0.7 fold
- Fold Changes Birc4 (baculoviral IAP repeat-containing 4): 5.9 fold
- Fold Changes C4 (complement component 4 (within H-2S)): 0.6 fold
- Fold Changes Camk2a (calcium/calmodulin-dependent protein kinase II alpha): 4.6 fold
- Fold Changes Capza2 (capping protein (actin filament) muscle Z-line, alpha 2): 0.7 fold
- Fold Changes Capzb (capping protein (actin filament) muscle Z-line, beta): 0.6 fold
- Fold Changes Car4 (carbonic anhydrase 4): 2.3 fold
- Fold Changes Cbfb (core binding factor beta): 0.7 fold
- Fold Changes Ccl9 (chemokine (C-C motif) ligand 9): 0.5 fold
- Fold Changes Cd97 (CD97 antigen): 5.4 fold
- Fold Changes Cd164 (CD164 antigen): 0.8 fold
- Fold Changes Cdh10 (cadherin 10): 0.4 fold
- Fold Changes Cebpd (CCAAT/enhancer binding protein (C/EBP), delta): 0.5 fold
- Fold Changes Copb2 (coatomer protein complex, subunit beta 2 (beta prime)): 0.7 fold
- Fold Changes Cpd (carboxypeptidase D): 1.9 fold
- Fold Changes D8Ertd69e (DNA segment, Chr 8, ERATO Doi 69, expressed): 1.2 fold
- Fold Changes D19Ertd678e (DNA segment, Chr 19, ERATO Doi 678, expressed): 5.2 fold
- Fold Changes Ddb1 (damage specific DNA binding protein 1): 0.7 fold
- Fold Changes Deb1 (differentially expressed in B16F10 1): 0.8 fold
- Fold Changes Dyrk1a (dual-specificity tyrosine-(Y)-phosphorylation regulated kinase 1a): 1.8 fold
- Fold Changes E030006K04Rik (RIKEN cDNA E030006K04 gene): 2.9 fold
- Fold Changes Eif2s3x (eukaryotic translation initiation factor 2, subunit 3, structural gene X-linked): 0.7 fold
- Fold Changes Eif4ebp1 (eukaryotic translation initiation factor 4E binding protein 1): 0.6 fold
- Fold Changes Eif4ebp2 (eukaryotic translation initiation factor 4E binding protein 2): 0.6 fold
- Fold Changes Enpep (glutamyl aminopeptidase): 0.6 fold
- Fold Changes Eps15 (epidermal growth factor receptor pathway substrate 15): 0.7 fold
- Fold Changes Erv4 (endogenous retroviral sequence 4 (with leucine t-RNA primer)): 5.2 fold
- Fold Changes Esr1 (estrogen receptor 1 (alpha)): 6.5 fold
- Fold Changes Fcgr2b (Fc receptor, IgG, low affinity Ilb): 0.1 fold
- Fold Changes G0s2 (G0/G1 switch gene 2): 1.5 fold
- Fold Changes Galnt1 (UDP-N-acetyl-alpha-D-galactosamine:polypeptide N-acetylgalactosaminyltra): 0.5 fold
- Fold Changes Gas5 (growth arrest specific 5): 0.6 fold
- Fold Changes Gpr12 (G-protein coupled receptor 12): 0.7 fold
- Fold Changes Gpx7 (glutathione peroxidase 7): 0.3 fold
- Fold Changes Gstm5 (glutathione S-transferase, mu 5): 0.6 fold
- Fold Changes Hbb-b1 (hemoglobin, beta adult major chain): 1.2 fold
- Fold Changes Hdac2 (histone deacetylase 2): 0.8 fold
- Fold Changes Hist2h3c2 (histone 2, H3c2): 1.5 fold
- Fold Changes Hmgcl (3-hydroxy-3-methylglutaryl-Coenzyme A lyase): 0.5 fold
- Fold Changes Hoxd8 (homeo box D8): 0.6 fold
- Fold Changes Htr1a (5-hydroxytryptamine (serotonin) receptor 1A): 4.2 fold
- Fold Changes Igfbp5 (insulin-like growth factor binding protein 5): 0.6 fold
- Fold Changes Itgb1 (integrin beta 1 (fibronectin receptor beta)): 0.7 fold
- Fold Changes Itpr1 (inositol 1,4,5-triphosphate receptor 1): 0.4 fold
- Fold Changes Junb (Jun-B oncogene): 0.4 fold
- Fold Changes Klf3 (Kruppel-like factor 3 (basic)): 5.9 fold
- Fold Changes Klrb1c (killer cell lectin-like receptor subfamily B member 1C): 0.2 fold
- Fold Changes Krtap3-1 (keratin associated protein 3-1): 0.7 fold
- Fold Changes Ksr (kinase suppressor of ras): 1.8 fold
- Fold Changes Lbp (lipopolysaccharide binding protein): 0.6 fold
- Fold Changes Ldh2 (lactate dehydrogenase 2, B chain): 1.6 fold
- Fold Changes Lpl (lipoprotein lipase): 1.4 fold
- Fold Changes Lypla1 (lysophospholipase 1): 4.8 fold
- Fold Changes Macf1 (microtubule-actin crosslinking factor 1): 0.5 fold
- Fold Changes Mapk9 (mitogen activated protein kinase 9): 2.8 fold
- Fold Changes Mapre3 (microtubule-associated protein, RP/EB family, member 3): 0.4 fold
- Fold Changes Mapt (microtubule-associated protein tau): 0.5 fold
- Fold Changes Matr3 (matrin 3): 0.6 fold
- Fold Changes Mnt (max binding protein): 0.6 fold
- Fold Changes Mt1 (metallothionein 1): 0.5 fold
- Fold Changes Mt2 (metallothionein 2): 0.3 fold
- Fold Changes Muc1 (mucin 1, transmembrane): 0.5 fold
- Fold Changes Myo5a (myosin Va): 0.1 fold
- Fold Changes Ndufb3 (NADH dehydrogenase (ubiquinone) 1 beta subcomplex 3): 1.2 fold
- Fold Changes Neurod6 (neurogenic differentiation 6): 0.1 fold
- Fold Changes Nnt (nicotinamide nucleotide transhydrogenase): 1.7 fold
- Fold Changes Npc1 (Niemann Pick type C1): 0.6 fold
- Fold Changes Nras (neuroblastoma ras oncogene): 0.6 fold
- Fold Changes Orc4l (origin recognition complex, subunit 4-like (S. cerevisiae)): 0.6 fold
- Fold Changes Pcdha12 (protocadherin alpha 12): 0.4 fold
- Fold Changes Pcnt2 (pericentrin 2): 1.6 fold
- Fold Changes Pdcd4 (programmed cell death 4): 0.6 fold
- Fold Changes Pdk4 (pyruvate dehydrogenase kinase, isoenzyme 4): 0.9 fold
- Fold Changes Pigr (polymeric immunoglobulin receptor): 0.7 fold
- Fold Changes Pkm2 (pyruvate kinase, muscle): 0.5 fold
- Fold Changes Plk1 (polo-like kinase 1 (Drosophila)): 0.3 fold
- Fold Changes Prp19 (PRP19/PSO4 homolog (S. cerevisiae)): 0.5 fold
- Fold Changes Psap (prosaposin): 17.3 fold
- Fold Changes Psma3 (proteasome (prosome, macropain) subunit, alpha type 3): 0.7 fold
- Fold Changes Psmc1 (protease (prosome, macropain) 26S subunit, ATPase 1): 0.5 fold
- Fold Changes Psmd8 (proteasome (prosome, macropain) 26S subunit, non-ATPase, 8): 0.7 fold
- Fold Changes Psmd11 (proteasome (prosome, macropain) 26S subunit, non-ATPase, 11): 0.6 fold
- Fold Changes Rab2 (RAB2, member RAS oncogene family): 0.9 fold
- Fold Changes Rbm17 (RNA binding motif protein 17): 0.7 fold
- Fold Changes Retn (resistin): 1.9 fold
- Fold Changes Rhoa (ras homolog gene family, member A): 1.4 fold
- Fold Changes Rpl30 (ribosomal protein L30): 0.7 fold
- Fold Changes Rpp14 (ribonuclease P 14 kDa subunit (human)): 0.7 fold
- Fold Changes Rrad (Ras-related associated with diabetes): 0.5 fold
- Fold Changes Rtn4 (reticulon 4): 0.9 fold
- Fold Changes Rwdd1 (RWD domain containing 1): 0.6 fold
- Fold Changes Sara2 (SAR1a gene homolog 2 (S. cerevisiae)): 0.8 fold
- Fold Changes Scamp2 (secretory carrier membrane protein 2): 0.7 fold
- Fold Changes Sgk (serum/glucocorticoid regulated kinase): 0.8 fold
- Fold Changes Siat6 (sialyltransferase 6 (N-acetyllacosaminide alpha 2,3-sialyltransferase)): 2 fold
- Fold Changes Skp1a (S-phase kinase-associated protein 1A): 0.5 fold
- Fold Changes Slc2a5 (solute carrier family 2 (facilitated glucose transporter), member 5): 0.2 fold
- Fold Changes Slc38a2 (solute carrier family 38, member 2): 0.8 fold
- Fold Changes Slpi (secretory leukocyte protease inhibitor): 1.1 fold
- Fold Changes Snx2 (sorting nexin 2): 1.5 fold
- Fold Changes Sorbs1 (sorbin and SH3 domain containing 1): 0.8 fold
- Fold Changes Spr (sepiapterin reductase): 1.4 fold
- Fold Changes Sri (sorcin): 2.3 fold
- Fold Changes St13 (suppression of tumorigenicity 13): 1.5 fold
- Fold Changes Stam2 (signal transducing adaptor molecule (SH3 domain and ITAM motif) 2): 4.3 fold
- Fold Changes Strap (serine/threonine kinase receptor associated protein): 0.6 fold
- Fold Changes Tcfl1 (transcription factor-like 1): 0.7 fold
- Fold Changes Tgm3 (transglutaminase 3, E polypeptide): 2.5 fold
- Fold Changes Tm4sf3 (transmembrane 4 superfamily member 3): 0.5 fold
- Fold Changes Tnpo1 (transportin 1): 0.4 fold
- Fold Changes Tnxb (tenascin XB): 1.4 fold
- Fold Changes Top1 (topoisomerase (DNA) I): 0.5 fold
- Fold Changes Transcribed sequence with strong similarity to protein sp: P49840 (H. sapiens): 0.8 fold
- Fold Changes Transcribed sequences: 0.7 fold
- Fold Changes Tsta3 (tissue specific transplantation antigen P35B): 0.9 fold
- Fold Changes Tubg2 (tubulin, gamma 2): 1.6 fold
- Fold Changes Ubb (ubiquitin B): 0.7 fold
- Fold Changes Ube2e1 (ubiquitin-conjugating enzyme E2E 1, UBC4/5 homolog (yeast)): 0.7 fold
- Fold Changes Upf3b (UPF3 regulator of nonsense transcripts homolog B (yeast)): 0.7 fold
- Fold Changes Utrn (utrophin): 1.7 fold
- Fold Changes Vps54 (vacuolar protein sorting 54 (yeast)): 0.4 fold
- Fold Changes Wars (tryptophanyl-tRNA synthetase): 1.9 fold
- Fold Changes Xcl1 (chemokine (C motif) ligand 1): 4.7 fold
- Fold Changes Xpo7 (exportin 7): 0.7 fold
- Fold Changes Zfp101 (zinc finger protein 101): 0.2 fold
- Fold Changes Zfp289 (zinc finger protein 289): 0.6 fold
- Fold Changes Rpl10a (ribosomal protein L10A) (Table 1 (down regulation)): 0.4 fold
- Fold Changes Itgav (integrin alpha V) (Table 1, first Itgav line): 0.2 fold
- Fold Changes Itgav (integrin alpha V) (Table 1, second Itgav line): 0.7 fold
- Fold Changes Itgav (integrin alpha V) (Table 2 (up regulation)): 4.6 fold
- Fold Changes Rpl10a (ribosomal protein L10A) (Table 2 (up regulation)): 1.2 fold

— patent US20050100617A1, “Method for improving age-related physiological deficits and increasing longevity” (priority 2001, published 2005)
